Assay results as given in patent publication US6806230B1, “Pyrimidine derivatives and herbicides containing them” (Kumiai Chemical Industry Co., Ltd., priority 1999, dated 2004).

Legend:
Assay type in all cases: in vivo
monochoria (Mo) [1] = experiment: Test Example 1: herbicidal effects by flooded paddy field treatment; set-up: herbicidal effects, Mo (monochoria):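 0-5 growth inhibition grade; 5 = over 90%; 4 = 70-90%; 3 = 50-70%; 2 = 30-50%; 1 = 10-30%; 0 = under 10%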; conditions: for Herbicidal effect index, Mo: dose 100 gai/10a, examined on 21st day after treatment, index 0-5 per Table 44; for herbicidal effects, Mo (monochoria): dose 100 g active ingredient per 10 ares, examined on the 21st day after treatment, standards of Table 44;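 for Herbicidal effect index, Mo: 0-5 growth inhibition grade; 5 = over 90%; 4 = 70-90%; 3 = 50-70%; 2 = 30-50%; 1 = 10-30%; 0 = under 10%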
In short: (§1)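 Puddled paddy soil in pots, seeds sown, 3 cm flood. Day after sowing: wettable powder diluted in water, applied dropwise to water surface, 100 g a.i./10 ares. Greenhouse; visual herbicidal rating at day 21 post-treatment.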

barnyard grass (Ec) [2] = experiment: Test Example 3: herbicidal effects by foliage treatment in upland field; set-up: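 0-5 growth inhibition grade; 5 = over 90%; 4 = 70-90%; 3 = 50-70%; 2 = 30-50%; 1 = 10-30%; 0 = under 10%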; conditions: dose 100 g active ingredient per 10 ares, examined on the 14th day after treatment
In short: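 Barnyard grass and green foxtail were grown in upland soil for 2 weeks in a greenhouse. A water-diluted wettable powder was sprayed over the foliage at 100 l per 10 ares, giving 100 g active ingredient per 10 ares. Herbicidal effect was scored on day 14 after treatment.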

green foxtail (Se) = experiment: Test Example 2: herbicidal effects by upland soil treatment; conditions: dose 100 g active ingredient per 10 ares, examined on the 21st day after treatment, standards of Table 44;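 note: 0-5 growth inhibition grade; 5 = over 90%; 4 = 70-90%; 3 = 50-70%; 2 = 30-50%; 1 = 10-30%; 0 = under 10%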
In short: (§2)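 Pre-emergence test: barnyard grass and green foxtail sown in upland soil, then soil surface sprayed with wettable-powder formulation at 100 g active ingredient per 10 ares (100 l per 10 ares). Grown in greenhouse; herbicidal effect scored on a rating scale 21 days after treatment.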

barnyard grass (Eo) [3] = experiment: Test Example 1: herbicidal effects by flooded paddy field treatment; set-up: herbicidal effects, Eo (barnyard grass):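 0-5 growth inhibition grade; 5 = over 90%; 4 = 70-90%; 3 = 50-70%; 2 = 30-50%; 1 = 10-30%; 0 = under 10%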; conditions: for Herbicidal effect index, Eo: dose 100 gai/10a, examined on 21st day after treatment, index 0-5 per Table 44; for herbicidal effects, Eo (barnyard grass): dose 100 g active ingredient per 10 ares, examined on the 21st day after treatment, standards of Table 44;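 for Herbicidal effect index, Eo: 0-5 growth inhibition grade; 5 = over 90%; 4 = 70-90%; 3 = 50-70%; 2 = 30-50%; 1 = 10-30%; 0 = under 10%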
In short: as §1

barnyard grass (Ec) [4] = experiment: Test Example 2: herbicidal effects by upland soil treatment; set-up: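 0-5 growth inhibition grade; 5 = over 90%; 4 = 70-90%; 3 = 50-70%; 2 = 30-50%; 1 = 10-30%; 0 = under 10%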; conditions: dose 100 g active ingredient per 10 ares, examined on the 21st day after treatment, standards of Table 44
In short: as §2

monochoria (Mo) [5] = experiment: Test Example 4: selectivity for a crop plant by flooded paddy field treatment; set-up: scale not given here; conditions: for Mo (herbicidal effects, index): dose 25 g active ingredient per 10 ares, examined on the 21st day after treatment; for Mo (herbicidal effect index): monochoria, dose 25 gai/10a, 21st day after treatment, index per Table 44
In short: (§3)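 Flooded paddy pots, 3 cm water; weeds sown from seed, rice transplanted at 2nd-leaf stage. Day after: wettable powder diluted in water, applied dropwise to water surface, 25 g a.i./10 a. Greenhouse; herbicidal effect rated at day 21.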

rice (Or) = experiment: as above; set-up: scale not given here; conditions: rice transplanted at second leaf stage; for Or (effect on crop plant rice, index): dose 25 g active ingredient per 10 ares, examined on the 21st day after treatment; for Or (herbicidal effect index on crop): dose 25 gai/10a, 21st day after treatment, index per Table 44
In short: as §3

barnyard grass (Eo) [6] = experiment: as above; set-up: scale not given here; conditions: for Eo (herbicidal effects, index): dose 25 g active ingredient per 10 ares, examined on the 21st day after treatment; for Eo (herbicidal effect index): barnyard grass, dose 25 gai/10a, 21st day after treatment, index per Table 44
In short: as §3

corn (Ze) = experiment: Test Example 5: selectivity for a crop plant by soil treatment in upland field; set-up: scale not given here; conditions: dose 25 gai/10a, 21st day after treatment, index per Table 44
Experimental: (§4) In a 80 cm^2 plastic pot, upland soil was filled, and seeds of barnyard grass (Ec), green foxtail (Se), soybean (G1), wheat (Tr) and corn (Ze) were sown and covered with soil. A wettable powder prepared in accordance with Formulation Example 1 was diluted with water and uniformly applied to the soil surface by a small size spray at a rate of 100 l per 10 ares so that the dose of the active ingredient would be 25 g per 10 ares. Thereafter, cultivation was carried out in a green house, and on the 21st day after the treatment, the herbicidal effects were examined in accordance with the standards of Table 44.

barnyard grass (Ec) [7] = experiment: as above; set-up: scale not given here; conditions: dose 25 gai/10a, 21st day after treatment, index per Table 44
Experimental: as §4

wheat (Tr) = experiment: as above; set-up: scale not given here; conditions: dose 25 gai/10a, 21st day after treatment, index per Table 44
Experimental: as §4

SMILES	Herbicidal effect index, Mo (monochoria (Mo) [1])	Ec (herbicidal effects, index) (barnyard grass (Ec) [2])	herbicidal effects, Se (green foxtail) (green foxtail (Se))	Herbicidal effect index, Eo (barnyard grass (Eo) [3])	herbicidal effects, Ec (barnyard grass) (barnyard grass (Ec) [4])	Mo (herbicidal effects, index) (monochoria (Mo) [5])	Or (effect on crop plant rice, index) (rice (Or))	Eo (herbicidal effects, index) (barnyard grass (Eo) [6])	herbicidal effects, Mo (monochoria) (monochoria (Mo) [1])	herbicidal effects, Eo (barnyard grass) (barnyard grass (Eo) [3])	Mo (herbicidal effect index) (monochoria (Mo) [5])	Or (herbicidal effect index on crop) (rice (Or))	Eo (herbicidal effect index) (barnyard grass (Eo) [6])	Ze (herbicidal effect index on crop) (corn (Ze))	Ec (herbicidal effect index) (barnyard grass (Ec) [7])	Tr (herbicidal effect index on crop) (wheat (Tr))
COc1cc(CC(=O)N(C)C(c2cncnc2C(F)(F)F)C(C)C)ccc1Cl (racemic) [Compound 1-47]	5	4	5	5	5	5	0	5	–	–	–	–	–	–	–	–
Cc1ccc(CC(=O)N(C)C(c2ccc(F)cc2)c2cncnc2C(F)(F)F)cc1 (racemic) [1-220]	–	5	5	–	5	–	–	–	5	5	5	1	5	–	–	–
CCN(C(=O)Cc1ccccc1)C(c1cncnc1C(F)(F)F)C(C)C (racemic) [Compound 1-26]	5	4	5	5	5	5	1	5	–	–	–	–	–	–	–	–
CSc1ncncc1C(C(C)C)N(C)C(=O)Cc1ccc(F)cc1 (racemic) [Compound 1-152]	–	4	5	–	5	–	–	–	5	5	5	1	5	–	–	–
CN(C(=O)Cc1ccccc1)C(c1cncnc1C(F)(F)F)C1CCCC1 (racemic) [Compound 1-137]	–	5	5	–	5	–	–	–	5	5	5	1	5	–	–	–
CC(C)C(c1cncnc1C(F)(F)F)N(C)C(=O)Cc1ccc(Cl)cc1 (racemic) [Compound 1-22]	5	4	5	5	5	5	1	5	–	–	–	–	–	–	–	–
C#CCN(C(=O)Cc1ccc(F)cc1)C(c1cncnc1C(F)(F)F)C(C)C (racemic) [Compound 1-172]	–	5	5	–	5	–	–	–	5	5	5	1	5	–	–	–
CSc1ncncc1C(C(C)C)N(C)C(=O)Cc1ccc(C)cc1 (racemic) [Compound 1-153]	–	4	5	–	5	–	–	–	5	5	5	1	5	–	–	–
CC(C)C(c1cncnc1C(F)(F)F)N(C)C(=O)Cc1cccc(Cl)c1 (racemic) [Compound 1-21]	5	4	5	5	5	5	1	5	–	–	–	–	–	–	–	–
CC(C)C(c1cncnc1C(F)(F)F)N(C)C(=O)COc1cccc(Cl)c1 (racemic) [Compound 1-133]	–	5	5	–	5	–	–	–	5	5	5	1	5	–	–	–
CC(C)C(c1cncnc1C(F)(F)F)N(C)C(=S)Cc1ccc(Cl)cc1 (racemic) [Compound 1-144]	–	4	5	–	5	–	–	–	5	5	5	1	5	–	–	–
CCOc1ccc(CC(=O)N(C)C(c2cncnc2C(F)(F)F)C(C)C)cc1 (racemic) [Compound 1-13]	5	5	5	5	5	5	1	5	–	–	–	–	–	–	–	–
Cc1ncncc1C(C(C)C)N(C)C(=O)Cc1ccccc1 (racemic) [Compound 1-87]	5	4	5	5	5	5	1	5	–	–	–	–	–	–	–	–
CN(C(=O)Cc1ccc(F)cc1)C(c1ccc(F)cc1)c1cncnc1C(F)(F)F (racemic) [1-218]	–	4	5	–	5	–	–	–	5	5	5	1	5	–	–	–
CCCC(c1cncnc1C(F)(F)F)N(C)C(=O)Cc1ccc(C)cc1 (racemic) [Compound 1-113]	5	4	4	5	5	–	–	–	–	–	5	0	5	–	–	–
C#CCN(C(=O)Cc1ccc(Cl)cc1)C(c1cncnc1C(F)(F)F)C(C)C (racemic) [1-194]	–	5	5	–	5	–	–	–	5	5	–	–	–	–	–	–
CC(C)C(c1cncnc1C(F)(F)F)N(C)C(=O)Cc1ccc(OC(F)F)cc1 (racemic) [Compound 1-96]	5	5	5	5	5	–	–	–	–	–	–	–	–	–	–	–
CC(C(=O)N(C)C(c1cncnc1C(F)(F)F)C(C)C)c1ccc(Cl)cc1 (mixture of isomers) [Compound 1-71]	5	–	5	5	5	–	–	–	–	–	–	–	–	0	5	3
CN(C(=O)Cc1ccccc1)C(c1ccccc1)c1cncnc1C(F)(F)F (racemic) [1-186]	–	5	5	–	5	–	–	–	5	5	–	–	–	–	–	–
CCCC(c1cncnc1C(F)(F)F)N(C)C(=O)Cc1ccc(F)cc1 (racemic) [Compound 1-112]	5	4	5	5	5	–	–	–	–	–	–	–	–	–	–	–
CC(C)C(c1cncnc1C(F)(F)F)N(C)C(=O)Cc1ccc(Br)cc1 (racemic) [Compound 1-41]	5	5	5	5	5	5	0	5	–	–	–	–	–	–	–	–
